Experiments:
Rattus norvegicus [1] = assay: Anti-inflammatory activity inRattus norvegicus albino (rat) assessed as inhibition of carrageenan-induced paw edema at 20 umol/kg, ip administered 1 hr before challenge measured after 2 hr; format: functional
Rattus norvegicus [2] = assay: Anti-inflammatory activity inRattus norvegicus albino (rat) assessed as inhibition of carrageenan-induced paw edema at 20 umol/kg, ip administered 1 hr before challenge measured after 3 hr relative to diclofenac-sodium; format: functional
Rattus norvegicus [3] = assay: Anti-inflammatory activity inRattus norvegicus albino (rat) assessed as inhibition of carrageenan-induced paw edema at 20 umol/kg, ip administered 1 hr before challenge measured after 1 hr; format: functional
Rattus norvegicus [4] = assay: Anti-inflammatory activity inRattus norvegicus albino (rat) assessed as inhibition of carrageenan-induced paw edema at 20 umol/kg, ip administered 1 hr before challenge measured after 3 hr; format: functional
Rattus norvegicus [5] = assay: Anti-inflammatory activity inRattus norvegicus albino (rat) assessed as inhibition of carrageenan-induced paw edema at 18 umol/kg, ip administered 1 hr before challenge measured after 3 hr; format: functional
Rattus norvegicus [6] = assay: Toxicity inRattus norvegicus albino (rat) assessed as ulcerogenicity at 20 umol/kg, po qd for 3 days; format: organism-based; settings: in vivo, 72 h
Rattus norvegicus [7] = assay: Anti-inflammatory activity inRattus norvegicus albino (rat) assessed as inhibition of carrageenan-induced paw edema at 12 umol/kg, ip administered 1 hr before challenge measured after 3 hr; format: functional
Rattus norvegicus [8] = assay: Anti-inflammatory activity inRattus norvegicus albino (rat) assessed as inhibition of carrageenan-induced paw edema at 24 umol/kg, ip administered 1 hr before challenge measured after 3 hr; format: functional
Rattus norvegicus [9] = assay: Anti-inflammatory activity in ip dosedRattus norvegicus albino (rat) assessed as inhibition of carrageenan-induced paw edema administered 1 hr before challenge measured after 3 hr; format: functional, organism-based

| IC50 (Rattus norvegicus [9]) [µmol/kg] | SMILES | inhibition in vivo at 20 µmol/kg (Rattus norvegicus [1]) [%] | inhibition in vivo at 20 µmol/kg (Rattus norvegicus [2]) [%] | inhibition in vivo at 20 µmol/kg (Rattus norvegicus [3]) [%] | inhibition in vivo at 20 µmol/kg (Rattus norvegicus [4]) [%] | inhibition in vivo at 18 µmol/kg (Rattus norvegicus [5]) [%] | UI (Rattus norvegicus [6]) | inhibition in vivo at 12 µmol/kg (Rattus norvegicus [7]) [%] | inhibition in vivo at 24 µmol/kg (Rattus norvegicus [8]) [%] |
| --- | --- | --- | --- | --- | --- | --- | --- | --- | --- |
| – | O=C1N(c2ccccc2)c2nc(CCN3CCCCC3)[nH]c(=O)c2C2C(N3CCCC3)CCCCN12 (stereo unspecified) | 35.7 | 47.3 | 26.8 | 41.4 | – | – | – | – |
| 7.26 | O=C([O-])Cc1ccccc1Nc1c(Cl)cccc1Cl.[Na+] [DICLOFENAC SODIUM] | 83.5 | – | 68.6 | 87.6 | 79.3 | 9 | 59.5 | 88.2 |
| 11.73 | O=C(O)CSCc1nc2c(c(=O)[nH]1)C1C(N3CCCC3)CCCCN1C(=O)N2c1ccccc1 (stereo unspecified) | 73.2 | 97.7 | 66.4 | 85.6 | 69.3 | 2.7 | 51.2 | 89.6 |
| – | O=C1N(c2ccccc2)c2nc(Cc3ccccc3Nc3c(Cl)cccc3Cl)[nH]c(=O)c2C2C(N3CCCC3)CCCCN12 (stereo unspecified) | 35.2 | 51.7 | 29.7 | 45.3 | – | – | – | – |
| – | O=C1N(c2ccccc2)c2nc[nH]c(=O)c2C2C(N3CCCC3)CCCCN12 (stereo unspecified) | 26.8 | 37.8 | 11 | 33.1 | – | – | – | – |
| – | O=C1N(c2ccccc2)c2nc(CN3CCOCC3)[nH]c(=O)c2C2C(N3CCCC3)CCCCN12 (stereo unspecified) | 57.5 | 71.2 | 51.9 | 62.4 | – | 4.3 | – | – |
| – | Nc1ncnc2c1C1C(N3CCCC3)CCCCN1C(=O)N2c1ccccc1 (stereo unspecified) | 22.8 | 38.5 | 17.6 | 33.7 | – | – | – | – |
| – | O=C1N(c2ccccc2)c2ncn(CN3CCCCC3)c(=O)c2C2C(N3CCCC3)CCCCN12 (stereo unspecified) | 16.4 | 33.4 | 11.9 | 29.3 | – | – | – | – |
| – | O=C1N(c2ccccc2)c2ncnc(N3CCOCC3)c2C2C(N3CCCC3)CCCCN12 (stereo unspecified) | 21.2 | 38.6 | 17.7 | 33.8 | – | – | – | – |
| – | O=C1N(c2ccccc2)c2nc(CCN3CCOCC3)[nH]c(=O)c2C2C(N3CCCC3)CCCCN12 (stereo unspecified) | 52.2 | 59.9 | 38.8 | 52.5 | – | 3.4 | – | – |
| – | O=C(SCc1nc2c(c(=O)[nH]1)C1C(N3CCCC3)CCCCN1C(=O)N2c1ccccc1)c1ccccc1O (stereo unspecified) | 36.9 | 56.4 | 29.8 | 49.7 | – | 3.4 | – | – |

Source: ChEMBL document CHEMBL3045768, “Potential anti-inflammatory activity and ulcerogenicity study of some novel pyrimido[4,5:4,5]pyrimido[1,6-a]azepine derivatives” (Med Chem Res, 2012)
